From paper PMC7982615, “Phase 1 study of telisotuzumab vedotin in Japanese patients with advanced solid tumors” (Cancer Medicine, 2021)
Read-outs that look alike come from different tables or passages of the source. Marks after values point to notes of the source that are not given here. Non-standard residues stand in square brackets, D forms with d. Residues, ends and D or L forms follow the SMILES beside them. *: point of attachment. Dolaproine = CO[C@@H]([C@@H]1CCCN1)[C@@H](C)C(=O)O; Dil = CC[C@H](C)[C@H](NC)[C@@H](CC(=O)O)OC; X1 = C[C@@H](N*)[C@@H](O)c1ccccc1; NMeV = CN[C@H](C(=O)O)C(C)C

What was measured:
[1] = Pharmacokinetics of teliso‐v conjugate and MMAE, noncompartmental; format: in vivo, human; conditions: for AUCtau, MMAE / Cmax, MMAE: geometric mean (%CV); for t1/2, MMAE: harmonic mean (min-max); for Tmax, MMAE: median (min-max)
Procedure: PK samples were also collected on cycles 2 and 4 predose and approximately 30 minutes after the end of infusion on day 1. PK parameters such as peak concentration (Cmax), time to peak concentration, area under the concentration‐time curve (AUC), and terminal half‐life (t1/2) were determined using noncompartmental methods.

[2] = system: MET exon 14‐mutated NSCLC; parameters: method as in earlier work; conditions: cited from earlier work
[3] = system: CD30‐positive Hodgkin lymphoma or systemic anaplastic large cell lymphoma; parameters: method as in PMID 24814862; conditions: US and Japanese patients; cited from earlier work
[4] = cycle 1, after teliso-v 2.4 mg/kg IV, n = 3
[5] = cycle 1, after teliso-v 2.7 mg/kg IV, n = 6

CC[C@H](C)[C@@H]([C@@H](CC(=O)N1CCC[C@H]1[C@H](OC)[C@@H](C)C(=O)N[C@H](C)[C@@H](O)c1ccccc1)OC)N(C)C(=O)[C@@H](NC(=O)[C@@H](NC)C(C)C)C(C)C [MMAE, monomethyl auristatin E] (H-[NMeV]V[Dil][Dolaproine]-X1)
t1/2 ([1]; N = 9, both dose levels): 96 to 140 h | AUCtau, MMAE [1, 4]: 535 (7) ng*h/mL | Cmax, MMAE [1, 4]: 1.69 (10) ng/mL | t1/2, MMAE [1, 4]: 5.80 (4.5–7.8) days | Tmax, MMAE [1, 4]: 168.5 (72.5–168.5) h | t1/2, MMAE ([1]; cycle 1, after teliso-v 2.7 mg/kg IV, N = 4): 4.01 (3–5.6)^c days | AUCtau, MMAE [1, 5]: 764 (78) ng*h/mL | Cmax, MMAE [1, 5]: 2.80 (77) ng/mL | Tmax, MMAE [1, 5]: 168.5 (72.5–168.5) h | Plasma Cmax, preliminary geometric mean ([1]; first dose of teliso‐v, cycle 1, across 2.4 and 2.7 mg/kg): 1.69 to 2.80 ng/mL | Accumulation in cycle 3 ([1]; multiple dosing Q3 W): 1.1–1.2 fold

CNC(=O)c1ccc(-c2cnc3ncc(Cc4ccc5ncccc5c4)n3n2)cc1F [capmatinib]
ORR ([2]; one to two prior lines of treatment): 39.1% | ORR ([2]; treatment‐naive patients): 71.4%

brentuximab vedotin
Ethnic differences in PK [3]: no remarkable ethnic differences in PK were found
